Values quoted from earlier work as cited in US20220347150A1, “TASIMELTEON USE IN TREATING SLEEP ABERRATIONS” (Vanda Pharmaceuticals Inc., priority 2019, published 2022).

Tests used:
[1] = preclinical models of acute phase-shifting and chronic re-entrainment
[2] = subjects with a 5-hour advance in sleep-wake cycle; treatment relative to placebo; reported in US 20090105333A1 (WO2007/137244)

**Q.** For `CCC(=O)NC[C@@H]1C[C@H]1c1cccc2c1CCO2` [tasimelteon, Tasimelteon], which chronobiotic activity [1] is on record?
**A.** potent chronobiotic activity

**Q.** And the “shifting dim light melatonin onset” value [2]?
**A.** positive outcomes

**Q.** And the sleep efficacy [2]?
**A.** positive outcomes
